In the NIST ThermoML archive (doi:10.1021/je200575c):
± gives the expanded uncertainty stated by the source.

Conditions: Liquid, Vibrating tube method

CCCCCCCCCCCCCC [tetradecane]
Conditions | mass density [kg/m3]
323.2 K, 1050 kPa | 737 ± 2
323.2 K, 2020 kPa | 742 ± 2
323.2 K, 3160 kPa | 743 ± 2
323.2 K, 4070 kPa | 744 ± 2
323.2 K, 5060 kPa | 745 ± 2
323.3 K, 5940 kPa | 745 ± 2
373.4 K, 2080 kPa | 707 ± 2
373.4 K, 4050 kPa | 709 ± 2
373.4 K, 6010 kPa | 710 ± 2
373.4 K, 7070 kPa | 711 ± 2
373.5 K, 2970 kPa | 708 ± 2
373.5 K, 5010 kPa | 710 ± 2
373.6 K, 1010 kPa | 706 ± 2
422.5 K, 1080 kPa | 672 ± 2
422.5 K, 2140 kPa | 673 ± 2
422.6 K, 3020 kPa | 675 ± 2
422.6 K, 4020 kPa | 676 ± 2
422.6 K, 5040 kPa | 677 ± 2
422.6 K, 6050 kPa | 679 ± 2
422.7 K, 7000 kPa | 680 ± 2
422.7 K, 8000 kPa | 681 ± 2
